3 compounds from US9714235B2, “Quinazoline derivatives, compositions thereof, and use as pharmaceuticals” (Shanghai Fochon Pharmaceutical Co., Ltd., priority 2013, dated 2017) can be followed below.

The test system of assay [1] is N87 (EGFR and ErbB2 overexpression) cells. Nature of the assay: Cell proliferation assay (MTS), N87. In kind it is cell-based. The note with it: 72 h incubation. The procedure:
(§1) Cell Proliferation Asssay
(§2) Materials and Preparation of Reagents
(§3) MTS testing kit was purchased from Promega. […] Dimethyl sulfoxide (DMSO) was purchased from Sigma.
(§4) Inhibition Activity of Cell Proliferation
(§5) In this assay, inhibition of EGFR and ErbB2 was detected by the inhibition of BT474 and N87 cells proliferation. BT474 cells were cultured in culture flasks to 40-80% confluence in DMEM plus 10% fetal bovine serum. […] Cells were collected and plated onto 96-well plates at desired cell density (BT474: 1000 cells/well; N87: 1000 cells/well). BT474 plates were incubated 48 h at 37° C., with 5% CO2 to adhere. N87 plates were incubated overnight at 37° C., with 5% CO2 to adhere. […] Place BT474 plates at 37° C., with 5% CO2 for 7d. Place N87 plates at 37° C., with 5% CO2 for 72 h. After removing the medium, 20 μl MTS/100 μl medium mixture solution were added to each well and incubate the plates for exactly 2 hours. Measure absorbance at 490 nm and 650 nm (reference wavelength). IC50 was calculated using GraphPad Prism 5.0.

Another assay deals with NCI-N87 tumor cells. Briefly: N87 tumor in vivo study. Details: species or system Female BALB/cA-nude mice. To be noted: for Average Tumor Volume Day 21 / Inhibition rate / T/C: Day 21; for Average Tumor Volume Day 0: Day 0 (baseline). The procedure: Female BALB/cA-nude mice were implanted with NCI-N87 tumor cells. Tumor measurements were recorded twice a week. Randomize animals to groups (Day 0) when tumors reached an average size of 60-150 mm^3. Group size was 6 mice. Test compound was administered p.o. once daily for 21 days. Tumor inhibition values were determined at Day 21.
Tumor volume (V) was calculated as follow: V=½×a×b, where a and b are the length and width of the tumor respectively. Relative tumor proliferation rate was calculated as follow: T/C (%)=(T−T0)/(C−C0)×100, where T and C are the tumor volume of test compound group and control group on Day 21, T0 and C0 are the tumor volume of test compound group and control group on Day 0.

Assay [2] deals with BT474 (EGFR overexpression) cells. Briefly: Cell proliferation assay (MTS), BT474. It counts as cell-based. The note with it: Homo sapiens, BT-474, 168 h, 7 d incubation. The procedure: as §1, §2, §3, §4, §5
Setting [3] is: 2 mg/kg p.o. once daily for 21 days.
Where [4] appears, read: 5 mg/kg p.o. once daily for 21 days.

The structures appear in SMILES notation.

As usually defined, the IC50 is the point on the concentration scale where inhibition reaches its midpoint. A low value points to greater potency. Turning to `COC[C@H]1CCN1C/C=C/C(=O)Nc1cc2c(Nc3ccc(F)c(Cl)c3)ncnc2cc1OC` [Example 2, (R,E)-N-(4-(3-chloro-4-fluorophenylamino)-7-methoxyquinazolin-6-yl)-4-(2-(methoxymethyl)azetidin-1-yl)but-2-enamide], the IC50 in assay [1] and in assay [2] was 0.0016 µM each time. The “Average Tumor Volume Day 21” value with NCI-N87 tumor cells (setting [3]) is 584.4 ± 71.3 mm^3; in the assay with NCI-N87 tumor cells (setting [4]) it was 54.3 ± 3.8 mm^3. The Inhibition rate in the assay with NCI-N87 tumor cells (setting [3]) came to 61%; in the assay on NCI-N87 tumor cells (setting [4]), 154%. Moreover, the T/C with NCI-N87 tumor cells (setting [3]) is 39%; in the assay with NCI-N87 tumor cells (setting [4]) it was −54%. Moreover, the “Average Tumor Volume Day 0” value in the assay with NCI-N87 tumor cells (2 mg/kg p.o. once daily) worked out at 113.3 ± 4.4 mm^3; in the assay on NCI-N87 tumor cells (5 mg/kg p.o. once daily) it was 117.6 ± 7.2 mm^3.

Regarding `O=C(/C=C/CN1CCC1CO)Nc1cc2c(Nc3ccc(F)c(Cl)c3)ncnc2cc1OC[C@@H]1COCCO1` (stereo partly drawn) [Example 16, (E)-N-(7-(((S)-1,4-dioxan-2-yl)methoxy)-4-(3-chloro-4-fluorophenylamino)quinazolin-6-yl)-4-(2-(hydroxymethyl)azetidin-1-yl)but-2-enamide], the 50% inhibitory concentration (IC50) in assay [1] is 0.0395 µM; in assay [2] it was 0.0175 µM.

For the compound `O=C(/C=C/CN1CCC1CO)Nc1cc2c(Nc3ccc(F)c(Cl)c3)ncnc2cc1OC[C@H]1[C@@H]2COC[C@@H]21` (stereo partly drawn) [Example 18, (E)-N-(7-((1R,5S,6r)-3-oxabicyclo[3.1.0]hexan-6-ylmethoxy)-4-(3-chloro-4-fluorophenylamino)quinazolin-6-yl)-4-(2-(hydroxymethyl)azetidin-1-yl)but-2-enamide], the values for the IC50 in assay [1] and in assay [2] were 0.0112 µM and 0.0108 µM, respectively.
